Consider 1 compound from patent US20240325420A1, “COMPOSITION INCLUDING PAEONIFLORIN FOR PREVENTION OR TREATMENT OF CACHEXIA AND MUSCLE LOSS” (CHUNG ANG UNIVERSITY INDUSTRY ACADEMIC COOPERATION …, priority 2021, published 2024).

Holding throughout (format): in vivo
One assay deals with GDF-15. Description: GDF-15 by ELISA in C57BL/6 mice with Lewis lung carcinoma-induced cachexia. The following applies: Lewis lung carcinoma-injected, paeoniflorin orally for 9 days, FIG. 18. The method, then: (§1) Each mouse of the control group was injected subcutaneously with 100 μL of saline solution. For the cachexia-induced groups, Lewis lung carcinoma cells (C57BL/6 mice) or colon-26 carcinoma cells (Balb/c mice) were injected subcutaneously into the flank area of each mouse at a dose of 10^6 cells/100 μL/mouse. […] After completion of 9 days of administration, the muscle strength of the mice was measured using a grip strength test device (Bioseb, USA), and the endurance of the mice was measured using a treadmill device (Columbus Instrument, USA).
After completion of the experiment, the mice were euthanized, blood was collected therefrom, the body weight excluding tumors, and the weights of the hind limb gastrocnemius muscle and quadriceps muscle were measured. GDF-15 in the serum was quantified by ELISA.
After oral administration of paeoniflorin to the tumor-induced mice for 9 days, blood was collected from the mice, and the plasma concentration of GDF-15 protein was analyzed by ELISA.

In assay [1] the test system is TNF-α, IL-6, IL-1β, IL-1α, CCL2 and CCL5. Description: mRNA levels of pro-inflammatory cytokines and chemokines in skeletal muscle by real-time PCR, C57BL/6 mice. The following applies: cisplatin-treated, Pae 10 and Pae 20 vs vehicle. The method, then: (§2) In addition, cisplatin-treated mice orally administered the same volume of distilled water were designated as the vehicle group. After completion of drug treatment, the mice of each group were euthanized with 10 mg/kg alfaxalone (Jurox, Rutherford, Australia). Blood was collected in test tubes containing EDTA, and centrifuged, and plasma was separated therefrom. Gastrocnemius and quadriceps skeletal muscles were dissected and weighed. The skeletal muscles were rapidly frozen in liquid nitrogen to be used for RT-qPCR, Western blotting, and ELISA.
Total RNA was isolated from skeletal muscle using Qiazol (Qiagen, Germany), and then the mRNA levels of pro-inflammatory cytokines and muscle-specific ubiquitin E3 ligases (MuRF1 and MAFbx) were measured by real-time PCR.
The mRNA levels of pro-inflammatory cytokines such as TNF-α, IL-6, IL-1β, and IL-1α, as well as chemokines such as CCL2 and CCL5, in the skeletal muscle, were measured by real-time PCR.

The test system of assay [2] is Balb/c mice with colon-26 carcinoma-induced cachexia. Description: Muscle strength and endurance in Balb/c mice with colon-26 carcinoma-induced cachexia. The following applies: colon-26 carcinoma-injected, paeoniflorin orally for 9 days. The protocol:
As the experimental animals, 4-week-old female C57BL/6 mice and Balb/c mice weighing 18 g to 20 g were purchased from Raon Bio (Yongin, Korea), acclimatized in the laboratory animal facility for one week, and then used in the experiment. During the experiment period, the animals were provided with solid feed and water ad libitum, and the breeding room was maintained at a temperature of 20° C. to 24° C. and a relative humidity of 55% to 65% with a 12-hr light/12-hr dark cycle.
Mice were divided into a control group and a cachexia-induced group, and the cachexia-induced group was subdivided into a tumor cell-injected group, a tumor cell-injected and existing drug (MA, megestrol acetate)-administered group, and tumor cell-injected and paeoniflorin (Pae)-administered groups. Each group consisted of 10 animals.
as §1

The test system of assay [3] is NF-κB signaling (p-IKK, p-IκB, IκB, NF-κB p65). Description: NF-κB signaling in skeletal muscle by Western blotting. As to conditions: gastrocnemius muscle, C57BL/6 mice, cisplatin-treated, Pae 10 and Pae 20. The method, then:
Proteins were extracted from skeletal muscle using NucleoSpin kits (Macherey-Nagel, Duren, Germany) and quantified using the BCA Protein Assay Kit (Pierce, Rockford, IL, USA). Anti-β-actin antibody was used to quantify protein loading. For myosin protein (MyHC, myosin heavy chain), myogenic factor (MyoD), and NF-κB signaling system (p-IKK, IKK, p-IκB, and IκB), protein levels in the gastrocnemius muscle were measured by Western blotting. Band intensities were quantified using ImageJ software (NIH, Bethesda, MD, USA). Nuclear and cytoplasmic lysates were prepared from the skeletal muscle using a nuclear extraction kit (Active Motif, Carlsbad, CA, USA). The protein concentration of both lysates was measured using the BCA Protein Assay Kit (Pierce). Anti-NF-κB p65 was used as the primary antibody, and 10 μg of protein per lysate was analyzed by Western blotting. TBP (TATA box-binding protein) and β-actin were as controls for the nuclear and cytosolic lysates, respectively. The target DNA binding activity of NF-κB was measured using the TransAM NF-κB ELISA kit (Active Motif, USA). NF-κB signaling was analyzed by Western blotting of the total extract and the cytosolic and nuclear fraction from the skeletal muscle of C57BL/6 mice.
A general note: Immunoblotting shows a protein as a band on a membrane.

In assay [4] the test system is Balb/c mice with cisplatin-induced cachexia. As to the kind of experiment: Body weight and muscle mass in cisplatin-treated Balb/c mice. The method, then:
The animal experiments were performed in accordance with internationally accepted principles for laboratory animal use and care, and the corresponding study protocol was reviewed and approved by the Institutional Animal Care and Use Committee (IACUC) at Chung-Ang University (approval #2021-00022). Four-week-old female C57BL/6 mice and Balb/c mice were purchased from Raonbio Inc. (Yongin, Korea) and were provided with standard laboratory diet and water ad libitum in the animal facility of Chung-Ang University. After a week of acclimation, the mice were intraperitoneally injected three times with 3 mg/kg/day cisplatin, suspended in 200 μL saline, every other day. Control group mice (sham-treated mice) were injected with the same volume of saline under the same regimen. The cisplatin-treated groups were orally administered paeoniflroin (Pae) or megestrol acetate (MA), suspended in 200 μL distilled water, every day until euthanasia.
Specifically, the cisplatin-treated groups were orally administered paeoniflorin (prepared in Example 1) at a dose of 5 (Pae 5 group), 10 (Pae 10 group), or 20 (Pae 20 group) mg/kg once daily for 9 days. The comparative drug-treated group was orally administered megestrol acetate (MA), which is currently most commonly prescribed for cancer cachexia patients in clinical practice, at a dose of 160 mg/kg (=800 mg [daily human dose]/60 kg [average human body weight]×12 [dose equivalent factor based on human:mouse body surface area ratio], once daily for 9 days.
as §2

Consider `C[C@@]12C[C@@]3(O)O[C@@H](O1)[C@]1(COC(=O)c4ccccc4)[C@H]3C[C@@]12O[C@@H]1O[C@H](CO)[C@@H](O)[C@H](O)[C@H]1O` [paeoniflorin], for which the “serum concentration of GDF-15” value in the assay on GDF-15 is “significantly decreased”. Besides, the “TNF-α mRNA expression level in the muscle” value in assay [1] (FIG. 8A) was “decreased”. For the same compound, in assay [1] (FIG. 8B), the “IL-6 mRNA expression level in the muscle” value was “decreased”. In addition, the “IL-1β mRNA expression level in the muscle” value in assay [1] (FIG. 8C) was “decreased”. Further, the “IL-1α mRNA expression level in the muscle” value in assay [1] (FIG. 8D) is “decreased”. The “CCL2 mRNA expression level in the muscle” value in assay [1] (FIG. 8E) is “decreased”. In assay [1] (FIG. 8F), the “CCL5 mRNA expression level in the muscle” value is reported as “decreased”. Also, the muscle strength result in assay [2] (FIG. 17A) is on record as “significantly increased”. The endurance entry in assay [2] (FIG. 17B) is recorded as “significantly increased”. Moreover, the “level of p-IKK (phospho-IKK)” value in assay [3] (FIG. 10A) is recorded as “reduced again”. Further, the “level of p-IκB (phospho-IκB)” value in assay [3] (FIG. 10B) is “reduced again”. Also, the “level of IκB” value in assay [3] (FIG. 11) is listed as “increased”. Further, the “cytosolic level of NF-κB” value in assay [3] (FIG. 12A) is listed as “increased”. In addition, in assay [3] (FIG. 12B), the “nuclear level of NF-κB” value is on record as “decreased”. Also, in assay [4] (Pae 5, Pae 10, Pae 20 (mg/kg orally daily) vs negative control group, FIG. 2A), the body weight entry is “increased”. Also, the “weight of gastrocnemius muscle” value in assay [4] (Pae 5, Pae 10, Pae 20 vs negative control group, FIG. 2B) is on record as “increased”. The “weight of quadriceps muscle” value in assay [4] (Pae 5, Pae 10, Pae 20 vs negative control group, FIG. 2C) is given as “increased”.
